Measured values published in US20150079158A1, “METHOD TO STABILIZE LIPOSOME EMULSIONS FOR BIOCIDAL DELIVERY” (General Electric Company, priority 2012, published 2015).

Experiment: HPLC analysis of active degradation after accelerated storage
Type: physicochemical
Procedure: The degradation of the biocide-containing liposome emulsion can be qualitatively observed by the formation of an insoluble precipitate. Quantitatively, high pressure liquid chromatography (HPLC) analysis was used to determine actives concentrations for samples stored under accelerated storage conditions. The samples that passed 90 days at 35° C. or 30 days at 50° C. were taken to ambient temperature and analyzed. The stability of these liposome emulsions was determined as follows.
HPLC analysis was executed for active degradation of 5-chloro-2-methyl-4-isothiazolin-3-one and 2-methyl-4-isothiazolin-3-one in the samples after 90 days at 35° C. or 30 days at 50° C.

active degradation (HPLC): less than 10%
Compound: Cn1sccc1=O [2-methyl-4-isothiazolin-3-one]
